Results taken from article PMC11931356, “New benzimidazole derivatives containing hydrazone group as anticancer agents: Inhibition of carbonic anhydrase IX and molecular docking studies” (Archiv Der Pharmazie, 2025).

Key:
Ki67 [1] = test: Immunofluorescent microscope analysis, Ki67 in MCF7; format: cell-based, human; conditions: MCF7 cell line, compared with the cisplatin-treated group
Method: (§1) Immunofluorescent microscope analysis was performed as in the previous study.^[ [33] ^]

Ki67 [2] = test: Immunofluorescent microscope analysis, Ki67 in C6; format: cell-based, rat; conditions: C6 cell line, compared with the cisplatin-treated group
Method: as §1

CA IX enzyme = test: Carbonic anhydrase IX inhibition assay (ELISA kit, CA IX protein level); format: biochemical, human; conditions: for Concentration (CA IX protein level, ELISA): ELISA kit, Control 250,225, lower = stronger inhibition, p < 0.001; for Concantration hCA IX: supplement table, same ELISA values
Method: The CA IX inhibitor acetazolamide was used as a positive control.
CA‐IX level was measured using the DCA900, R&D Systems ELISA Kit. In brief, 100 μL samples were incubated with 50 μL assay buffer for 2 h at room temperature (RT) in a 96‐well plate. The well was then washed four times with 400 µL wash buffer. After 200 µL of a conjugate buffer incubated at room temperature for 2 hours, the plate was washed four times with wash buffer. It was then incubated with 200 µL of substrate buffer for 30 min at room temperature. After washing, 50 µL of the stop solution was used to terminate the reaction. The plate was read at 450 nm using an Epoch™ microplate spectrophotometer (BioTek). The concentration of CA IX protein in each sample was calculated using a standard curve.

Ki67 [3] = test: Immunofluorescent microscope analysis, Ki67 in HT29; format: cell-based; conditions: HT29 cell line, compared with the cisplatin-treated group
Method: as §1

[4] = test system: L929 (healthy mouse fibroblast cell line); test: MTT cell viability assay, L929; format: cell-based; conditions: max 100 µM, mean ± SD
Method: (§2) Cell lines from the American Type Culture Collection (ATCC) were used to test the human breast adenocarcinoma cell line (MCF7), rat glial tumor (C6), healthy mouse fibroblast cell line (L929), and colon cancer (HT29). Cells were combined with solutions of 1% penicillin (Sigma Aldrich), 10% fetal bovine serum (FBS; Sigma Aldrich), and 89% DMEM (Dulbecco's modified Eagle's medium; Gibco, Thermo Fisher Scientific). The cells were incubated at 37°C with 95% humidity and 5% CO2 to allow the medium to develop.
(§3) All compounds were examined for their cytotoxic effects on the L929, HT29, MCF7, and C6 cell lines using MTT assay. Approximately 1 × 10^4 cells were seeded in each well. Cells were allowed to adhere for 24 h and then the syntheses were applied at different concentrations. All syntheses were run in three repetitions. Wells with a maximum of 100 µM product were incubated for 24 h. Cisplatin was used as the positive control, and all wells devoid of specimens served as negative controls. To identify metabolically active cells, the wells were incubated for 3 h at 37°C after being treated with MTT solution. Following the MTT interaction, DMSO solution was added to the wells after they had been drained. This solution was used to dissolve the formazan crystals, and a color shift indicated how many live cells were present in each well.

Ki67 [5] = test: Immunofluorescent microscope analysis, Ki67 in L929; format: cell-based, mouse; conditions: L929 cell line, compared with the cisplatin-treated group
Method: as §1

BAX [6] = test: RT-PCR expression profile, BAX in HT29; format: cell-based; conditions: HT29 cell lines, effective dose, 24 h, vs control group, p < 0.05
Method: (§4) Total RNA was first isolated from the cells to which effective doses of compounds 3d and/or 3j were applied at the 24th hour, by the kit protocols, and then cDNA was synthesized from this total RNA. The expression profiles of Caspase 3, BAX, and BCL‐2 genes from the cDNA samples obtained were analyzed with the RT‐PCR device by the kit protocol. Statistical analysis of the data with the ΔΔCT method was performed using the “RT2 profiler RT‐PCR Array Data Analysis version 3.5” (http://pcrdataanalysissabiosciences.com/pcr/arrayanalysis.php) software.

HT29 (colon cancer) = test: MTT cell viability assay, HT29; format: cell-based; conditions: max 100 µM, mean ± SD
Method: as §2, §3

BAX [7] = test: RT-PCR expression profile, BAX in MCF7; format: cell-based, human; conditions: MCF7 cell lines, effective dose, 24 h, vs control group, p < 0.05
Method: as §4

BAX [8] = test: RT-PCR expression profile, BAX in C6; format: cell-based, rat; conditions: C6 cell lines, effective dose, 24 h, vs control group, p < 0.05
Method: as §4

Caspase 3 = test: RT-PCR expression profile, Caspase 3 in C6; format: cell-based, rat; conditions: C6 cell lines, effective dose, 24 h, vs control group, p < 0.05
Method: as §4

rat glial tumor (C6) = test: MTT cell viability assay, C6; format: cell-based; conditions: 24 h incubation, max 100 µM, mean ± SD
Method: as §2, §3

[9] = test system: human breast adenocarcinoma cell line (MCF7); test: MTT cell viability assay, MCF7; format: cell-based; conditions: max 100 µM, mean ± SD
Method: as §2, §3

BAX [10] = test: RT-PCR expression profile, BAX in L929; format: cell-based, mouse; conditions: L929 cell lines, effective dose, 24 h, vs control group, p < 0.05
Method: as §4

[11] = Mus musculus, L929, 24 h incubation
[12] = Homo sapiens, HT-29, 24 h incubation
[13] = Homo sapiens, MCF7, 24 h incubation

Row | Molecule | Concentration (CA IX protein level, ELISA) (CA IX enzyme) | Concantration hCA IX (CA IX enzyme) | IC50 (HT29 (colon cancer); [12]) [µM] | IC50 (rat glial tumor (C6); Rattus norvegicus) [µM] | IC50 [9, 13] [µM] | Ki67 immunolocalisation rate (Ki67 [1]) | Ki67 immunolocalisation rate (Ki67 [2]) | Ki67 immunolocalisation rate (Ki67 [3]) | IC50 [4, 11] [µM] | Ki67 immunolocalisation rate (Ki67 [5]) | BAX expression increase (BAX [6]) [times] | BAX expression increase (BAX [7]) [times] | BAX expression increase (BAX [8]) [times] | Caspase 3 expression increase (Caspase 3) [times] | IC50 ([4]; 24 h incubation) [µM] | IC50 (HT29 (colon cancer); 24 h incubation) [µM] | IC50 (rat glial tumor (C6)) [µM] | IC50 ([9]; 24 h incubation) [µM] | BAX expression increase (BAX [10]) [times]
1 | N#Cc1ccc2[nH]c(-c3ccc(C(=O)NN=Cc4ccc([N+](=O)[O-])s4)cc3)nc2c1 [Compound 3i, 4‐(5‐Cyano‐1H‐benzo[d]imidazol‐2‐yl)‐N′‐[(5‐nitrothiophen‐2‐yl)methylene]benzohydrazide] | 92,225 pg/mL | 92,225 pg/ml | > 100 | > 100 | > 100 |  |  |  | > 100 |  |  |  |  |  |  |  |  |  | 
2 | N#Cc1ccc2[nH]c(-c3ccc(C(=O)NN=Cc4ccncc4)cc3)nc2c1 [Compound 3e, 4‐(5‐Cyano‐1H‐benzo[d]imidazol‐2‐yl)‐N′‐[(pyridine‐4‐yl)methylene]benzohydrazide] | 120,225 pg/mL | 120,225 pg/ml | > 100 | > 100 | > 100 |  |  |  | > 100 |  |  |  |  |  |  |  |  |  | 
3 | 4‐(5‐Cyano‐1H‐benzo[d]imidazol‐2‐yl)‐N′‐[(imidazol‐2‐yl)methylene]benzohydrazide [Compound 3f] | 93,975 pg/mL | 93,975 pg/ml |  |  |  |  |  |  |  |  |  |  |  |  | > 100 | > 100 | > 100 | > 100 | 
4 | N.N.[Cl][Pt][Cl] [Cisplatin, reference compound] |  |  |  |  |  |  |  |  |  |  |  |  |  |  | 88.8 ± 6.4 | 59.4 ± 12.6 | 39.4 ± 6.4 | 29.6 ± 7.6 | 
5 | N#Cc1ccc2[nH]c(-c3ccc(C(=O)NN=Cc4cccnc4)cc3)nc2c1 [Compound 3h, 4‐(5‐Cyano‐1H‐benzo[d]imidazol‐2‐yl)‐N′‐[(pyridine‐3‐yl)methylene]benzohydrazide] | 119,425 pg/mL | 119,425 pg/ml | > 100 | > 100 | > 100 |  |  |  | > 100 |  |  |  |  |  |  |  |  |  | 
6 | N#Cc1ccc2[nH]c(-c3ccc(C(=O)NN=Cc4ccc([N+](=O)[O-])o4)cc3)nc2c1 [Compound 3c, 4‐(5‐Cyano‐1H‐benzo[d]imidazol‐2‐yl)‐N′‐[(5‐nitrofuran‐2‐yl)methylene]benzohydrazide] | 150,225 pg/mL | 150,225 pg/ml | 90.6 ± 12.1 | > 100 | > 100 |  |  |  | > 100 |  |  |  |  |  |  |  |  |  | 
7 | N#Cc1ccc2[nH]c(-c3ccc(C(=O)NN=Cc4cccs4)cc3)nc2c1 [Compound 3g, 4‐(5‐Cyano‐1H‐benzo[d]imidazol‐2‐yl)‐N′‐[(thiophen‐2‐yl)methylene]benzohydrazide] | 95,745 pg/mL | 95,745 pg/ml | > 100 | > 100 | > 100 |  |  |  | > 100 |  |  |  |  |  |  |  |  |  | 

Further molecules by falling IC50 (HT29 (colon cancer); [12]), results first:

Row | Concentration (CA IX protein level, ELISA) (CA IX enzyme) | Concantration hCA IX (CA IX enzyme) | IC50 (HT29 (colon cancer); [12]) [µM] | IC50 (rat glial tumor (C6); Rattus norvegicus) [µM] | IC50 [9, 13] [µM] | Molecule | Ki67 immunolocalisation rate (Ki67 [1]) | Ki67 immunolocalisation rate (Ki67 [2]) | Ki67 immunolocalisation rate (Ki67 [3]) | IC50 [4, 11] [µM] | Ki67 immunolocalisation rate (Ki67 [5]) | BAX expression increase (BAX [6]) [times] | BAX expression increase (BAX [7]) [times] | BAX expression increase (BAX [8]) [times] | Caspase 3 expression increase (Caspase 3) [times] | IC50 ([4]; 24 h incubation) [µM] | IC50 (HT29 (colon cancer); 24 h incubation) [µM] | IC50 (rat glial tumor (C6)) [µM] | IC50 ([9]; 24 h incubation) [µM] | BAX expression increase (BAX [10]) [times]
8 | 175,225 pg/mL | 175,225 pg/ml | 89.6 ± 5.74 | > 100 | 88.4 ± 2.18 | Cc1ccc(C=NNC(=O)c2ccc(-c3nc4cc(C#N)ccc4[nH]3)cc2)o1 [Compound 3b, 4‐(5‐Cyano‐1H‐benzo[d]imidazol‐2‐yl)‐N′‐[(5‐methylfuran‐2‐yl)methylene]benzohydrazide] |  |  |  | > 100 |  |  |  |  |  |  |  |  |  | 
9 |  |  | 71.8 ± 3.68 | 98.9 ± 7.94 | 86.4 ± 1.28 | N#Cc1ccc2[nH]c(-c3ccc(C(=O)NN=Cc4ccco4)cc3)nc2c1 [Compound 3a, 4‐(5‐Cyano‐1H‐benzo[d]imidazol‐2‐yl)‐N′‐[(furan‐2‐yl)methylene]benzohydrazide] |  |  |  | 84.6 ± 9.6 |  |  |  |  |  |  |  |  |  | 
10 | 82,745 pg/mL | 82,745 pg/ml | 45.8 ± 15.6 | > 100 | > 100 | Cc1ccc(C=NNC(=O)c2ccc(-c3nc4cc(C#N)ccc4[nH]3)cc2)s1 [Compound 3j, 4‐(5‐Cyano‐1H‐benzo[d]imidazol‐2‐yl)‐N′‐[(5‐methylthiophen‐2‐yl)methylene]benzohydrazide] |  |  | significantly decreased | > 100 | significantly decreased | 3.07 |  |  |  |  |  |  |  | 105.7
11 | 83,975 pg/mL | 83,975 pg/ml | 39.1 ± 8.28 | 20.5 ± 8.34 | 25.6 ± 16.4 | Cc1ccsc1C=NNC(=O)c1ccc(-c2nc3cc(C#N)ccc3[nH]2)cc1 [Compound 3d, 4‐(5‐Cyano‐1H‐benzo[d]imidazol‐2‐yl)‐N′‐[(3‐methylthiophen‐2‐yl)methylene]benzohydrazide] | significantly decreased | significantly decreased | significantly decreased | > 100 | significantly decreased | 6.59 | 12.55 | 4.06 | 2.75 |  |  |  |  | 
